Source: paper PMC5940854, “Nitrothiophene carboxamides, a novel narrow spectrum antibacterial series: Mechanism of action and Efficacy” (Scientific Reports, 2018)
Values after ≈ are worked out from the molar mass of the structure shown.

Key:
[1] = Intravenous pharmacokinetics; type: in vivo, BALB/c mice; conditions: for AUC / AUC(0-inf) / AUC(0-t) / clearance / half-life / Vd: BALB/c, mouse, in vivo; for AUC: iv, 2 mg/kg, used for estimation of oral bioavailability; for AUC(0-inf) / AUC(0-t) / clearance / half-life / Vd / AUMC0-∞ / Clast / Kel(β) / extr AUC: mice, single IV dose 2 mg/kg; for Vd: read-out: Vss; for condition of mice post dose and throughout the study: single intravenous dose of 2 mg/kg or single oral dose of 10 mg/kg
Protocol: The test substances were formulated in the vehicle DMSO: PEG400: Ethanol (absolute): Water at ratio of 10:40:20:30 (v/v). The required quantity of test compound was weighed, transferred into a vial and dissolved using the appropriate volumes of DMSO, PEG400, Ethanol (absolute) and sterile water in a sequential manner until a clear solution was obtained. The test substance was administered intravenously as a bolus via the tail vein at a dose volume of 5 ml/kg.
(§1) At 5 min, 15 min, 30 min, 1 h, 2 h, 4 h, 8 h, and 24 h time points, and prior to sampling, mice were anaesthetized with isoflurane. From each mouse, two blood samples were drawn; the 1st was non-terminal (0.1 ml) and the 2nd terminal, by retro-orbital plexus puncture using heparanised capillary tubes. Blood was collected in 2 ml Eppendorf tubes containing 0.01 ml of 10% K2EDTA as anticoagulant, mixed gently and placed in ice before centrifugation. Blood was centrifuged at 10,000 rpm for 5 min, and plasma was harvested and stored at −80 °C until bioanalysis.
(§2) Ultrafast liquid chromatography mass spectrometric method was used for the estimation of test compounds in pre-clinical study samples. The analysis was performed using an API 4000 LC-MS/MS system. The interface used with the API 4000 LC-MS/MS was a Turbo Ion spray. The positive ions were measured in MRM mode. The analyte was extracted using a solid-phase extraction procedure. The data was acquired by and integrated using the Applied Biosystems “Analyst” version 1.5.2 software. Linear regression, with 1/x^2 weighting was used for calibration.
(§3) Non-compartmental (NCA) PK analysis was performed using MS Excel. The linear trapezoidal rule was used to estimate the AUC. The NCA analysis was performed using the following equations (3) on mean concentration time data: AUC=Σ[(Ci1+Ci2)/2]∗[ti2−ti1] AUMC=Σ[((Ci1∗ti1)+(Ci2∗ti2))/2)∗(ti2−ti1)] AUCt−∞=Clast/Kel AUC0−∞=AUC0−t+AUCt−∞ AUCextrapolated(%)=[AUCt−∞/AUC0−∞]∗100 where, Ci1 and Ci2 are the concentrations at times ti1 and ti2, respectively. Kel=ln(Cx/Cy)/(ty−tx) where, Kel is the first order elimination rate constant, ln is the natural logarithm, Cx and Cy are the first and last concentrations, respectively on the linear portion of the terminal phase of the concentration-time profile, and ty and tx are the corresponding time points. T1/2=0.693/Kel Cl=Doseiv/AUC0−∞ Vss=(AUMC0−∞/AUC0−∞)∗(Doseiv/AUC0−∞) Cmax and tmax were visually estimated from the mean oral conc-time profile F(%)=(AUCpo/AUCiv)∗(Doseiv/Dosepo)∗100

Oral pharmacokinetics = type: in vivo, BALB/c mice; set-up: Ke: unit not given here; conditions: for AUC / AUC(0-inf) / AUC(0-t) / Cmax / Tmax / half-life / bioavailability: BALB/c, mouse, plasma; for AUC: po; for AUC(0-inf) / AUC(0-t) / Cmax / Tmax / half-life / Ke / ext AUC: mice
Protocol: The test substances were formulated in 10% DMSO in 0.25% carboxy methyl cellulose. […] Then 3.6 ml of 0.25% of CMC was added in aliquots to the DMSO solution, with constant grinding using a pestle until a uniform suspension was obtained. […]
as §1, §2, §3

[2] = test system: Salmonella typhimurium clinical strain; test: MIC, Salmonella typhimurium; type: cell-based
Protocol: (§4) The inoculum used for all the experiments is derived from a single seed lot that is maintained as glycerol stocks at −80 °C and are sub cultured on LB plate for isolated colonies. Single colony of each strain is grown in M9 medium. All test compound stocks and dilutions are prepared in DMSO. Serial two-fold dilutions of compounds are prepared separately, with the concentrations ranging from 2 mg/mL to 0.015 mg/mL. To 150 µl (3–7 × 10^5 CFU/ml) of bacterial culture in 96 well microtitre plates, 3 μL compound from each of the dilutions is added to respective wells to obtain final concentrations ranging from 40 µg/mL to 0.3 µg/mL of the test compounds. Media control, culture control and appropriate reference drug controls are included. […] Growth is monitored by checking absorbance at 600 nm (A600). […] The samples from MIC and above concentrations are plated for MBC (Minimum Bactericidal Concentration). The samples are diluted 1:10 and plated on LB agar plates. […] The killing kinetics is determined by enumerating survivors at various time points following compound exposure. E. coli cells (~10^7 CFU/ml; A600 of 0.1) are treated with various concentrations (40 µg/mL to 0.3 µg/mL) of compounds in a 96-well microtitre plate. […] Data is expressed as the log10 CFU for each drug treatment.

E. coli BW24113 = test: In vitro time kill analysis; type: cell-based; conditions: for time to 99.9% reduction: at 2–4X MIC; for time to total kill (below the limit of quantitation, LOQ): at 8X MIC
Protocol: as §4, with “plate. At various time intervals (0 to 8 h), 30 μl volumes of treated cultures are serially diluted and plated on LB agar plates.” for “plate.”

E. coli ∆acrB JW0451-2 = test: Neutropenic thigh infection, E. coli ∆acrB; type: in vivo, BALB/c mice
[3] = test system: E. coli emrB knockout strain; test: MIC, efflux pump knockout emrB; type: cell-based; conditions: Escherichia coli, read-out: MIC emrB
Protocol: as §4

[4] = test system: E. coli emrY knockout strain; test: MIC, efflux pump knockout emrY; type: cell-based; conditions: Escherichia coli, read-out: MIC emrY
Protocol: as §4

[5] = test system: E. coli mdtG knockout strain; test: MIC, efflux pump knockout mdtG; type: cell-based; conditions: Escherichia coli, read-out: MIC mdtG
Protocol: as §4

[6] = test system: E. coli hsrA knockout strain; test: MIC, efflux pump knockout hsrA; type: cell-based; conditions: Escherichia coli, read-out: MIC hsrA
Protocol: as §4

[7] = test system: E. coli mdtK knockout strain; test: MIC, efflux pump knockout mdtK; type: cell-based; conditions: Escherichia coli, read-out: MIC mdtK
Protocol: as §4

[8] = test system: E. coli emrE knockout strain; test: MIC, efflux pump knockout emrE; type: cell-based; conditions: Escherichia coli, read-out: MIC emrE
Protocol: as §4

[9] = test system: E. coli mdtB knockout strain; test: MIC, efflux pump knockout mdtB; type: cell-based; conditions: Escherichia coli, read-out: MIC mdtB
Protocol: as §4

Question: For `O=C(Nc1nc(-c2ccc(F)cc2F)cs1)c1ccc([N+](=O)[O-])s1` [compound 12, N-(4-(2,4-difluorophenyl)thiazol-2-yl)-5-nitrothiophene-2-carboxamide], which AUC [1] is on record?
Answer: 570 ng·h/mL

Question: And the AUC(0-inf) [1]?
Answer: 570 ng·h/mL

Question: And the AUC(0-t) [1]?
Answer: 570 ng·h/mL

Question: And the clearance [1]?
Answer: 58.7 mL/min/kg

Question: And the half-life [1]?
Answer: 36 min

Question: And the Vd [1]?
Answer: 1.64 L/kg

Question: And the “AUMC0-∞” value [1]?
Answer: 0.26

Question: What about the Clast [1] of the same compound?
Answer: 3 ng/mL

Question: And the “Kel(β)” value [1]?
Answer: 1.18 ^-h

Question: What about the “extr AUC” value [1] of the same compound?
Answer: 0.4%

Question: What about the “condition of mice post dose and throughout the study” value [1] of the same compound?
Answer: visibly normal

Question: And the AUC (Oral pharmacokinetics; 10 mg/kg)?
Answer: 760 ng·h/mL

Question: And the AUC(0-inf) (Oral pharmacokinetics; single oral dose 10 mg/kg)?
Answer: 760 ng·h/mL

Question: What about the AUC(0-t) (Oral pharmacokinetics; single oral dose 10 mg/kg) of the same compound?
Answer: 750 ng·h/mL

Question: What about the Cmax (Oral pharmacokinetics; single oral dose 10 mg/kg) of the same compound?
Answer: 650 ng/mL

Question: And the Tmax (Oral pharmacokinetics; single oral dose 10 mg/kg)?
Answer: 15 min

Question: What about the half-life (Oral pharmacokinetics; single oral dose 10 mg/kg) of the same compound?
Answer: 61.8 min

Question: And the bioavailability (Oral pharmacokinetics; oral 10 mg/kg vs IV 2 mg/kg)?
Answer: 26.7%

Question: And the Ke (Oral pharmacokinetics; single oral dose 10 mg/kg)?
Answer: 0.67

Question: What about the “ext AUC” value (Oral pharmacokinetics; single oral dose 10 mg/kg) of the same compound?
Answer: 0.5%

Question: And the MIC Salmonella typhimurium [2]?
Answer: 2.5 µg/mL (≈ 6.81 µM)

Question: Which “time to 99.9% reduction” value (E. coli BW24113) does the source give for `COc1cc(-c2csc(NC(=O)c3ccc([N+](=O)[O-])s3)n2)ccc1Cl` [compound 20, N-(4-(4-chloro-3-methoxyphenyl)thiazol-2-yl)-5-nitrothiophene-2-carboxamide] here?
Answer: 6 to 8 h

Question: What about the “time to total kill (below the limit of quantitation, LOQ)” value (E. coli BW24113) of the same compound?
Answer: 8 h

Question: What about the MIC Salmonella typhimurium [2] of the same compound?
Answer: 10 µg/mL (≈ 25.3 µM)

Question: Which “time to 99.9% reduction” value (E. coli BW24113) does the source give for `O=C(Nc1nc(-c2ccc(F)cc2)cs1)c1ccc([N+](=O)[O-])s1` [compound 15, N-(4-(4-Fluorophenyl)thiazol-2-yl)-5-nitrothiophene-2-carboxamide] here?
Answer: 6 to 8 h

Question: What about the “time to total kill (below the limit of quantitation, LOQ)” value (E. coli BW24113) of the same compound?
Answer: 8 h

Question: And the AUC [1]?
Answer: 910 ng·h/mL

Question: What about the AUC(0-inf) [1] of the same compound?
Answer: 911 ng·h/mL

Question: And the AUC(0-t) [1]?
Answer: 900 ng·h/mL

Question: What about the clearance [1] of the same compound?
Answer: 36.7 mL/min/kg

Question: What about the half-life [1] of the same compound?
Answer: 30 min

Question: And the Vd [1]?
Answer: 0.4 L/kg

Question: What about the “AUMC0-∞” value [1] of the same compound?
Answer: 0.17

Question: And the Clast [1]?
Answer: 12 ng/mL

Question: And the “Kel(β)” value [1]?
Answer: 1.51 ^-h

Question: What about the “extr AUC” value [1] of the same compound?
Answer: 0.9%

Question: What about the “condition of mice post dose and throughout the study” value [1] of the same compound?
Answer: visibly normal

Question: What about the AUC (Oral pharmacokinetics; 10 mg/kg) of the same compound?
Answer: 750 ng·h/mL

Question: What about the AUC (Oral pharmacokinetics; 100 mg/kg) of the same compound?
Answer: 10300 ng·h/mL

Question: And the AUC(0-inf) (Oral pharmacokinetics; single oral dose 10 mg/kg)?
Answer: 760 ng·h/mL

Question: And the AUC(0-t) (Oral pharmacokinetics; single oral dose 10 mg/kg)?
Answer: 750 ng·h/mL

Question: What about the Cmax (Oral pharmacokinetics; single oral dose 10 mg/kg) of the same compound?
Answer: 1200 ng/mL

Question: And the Tmax (Oral pharmacokinetics; single oral dose 10 mg/kg)?
Answer: 15 min

Question: And the half-life (Oral pharmacokinetics; single oral dose 10 mg/kg)?
Answer: 289 min

Question: What about the AUC(0-t) (Oral pharmacokinetics; single oral dose 100 mg/kg) of the same compound?
Answer: 10300 ng·h/mL

Question: And the Cmax (Oral pharmacokinetics; single oral dose 100 mg/kg)?
Answer: 3800 ng/mL

Question: And the Tmax (Oral pharmacokinetics; single oral dose 100 mg/kg)?
Answer: 15 min

Question: What about the bioavailability (Oral pharmacokinetics; oral 10 mg/kg vs IV 2 mg/kg) of the same compound?
Answer: 16.5%

Question: What about the bioavailability (Oral pharmacokinetics; oral 100 mg/kg vs IV 2 mg/kg) of the same compound?
Answer: 22.6%

Question: And the Ke (Oral pharmacokinetics; single oral dose 10 mg/kg)?
Answer: 0.14

Question: What about the “ext AUC” value (Oral pharmacokinetics; single oral dose 10 mg/kg) of the same compound?
Answer: 1.5%

Question: And the “efficacy in thigh infection model (in words)” value (E. coli ∆acrB JW0451-2; E. coli ∆acrB JW0451-2)?
Answer: significantly bactericidal

Question: And the “Log10CFU Mean Diff. vs. Untreated Controls” value (E. coli ∆acrB JW0451-2; Study TI-2014-007, ∆acrB JW0451-2, 10mg/kg per oral)?
Answer: 0.2933 Log10CFU

Question: And the “Log10CFU Mean Diff. vs. Untreated Controls” value (E. coli ∆acrB JW0451-2; Study TI-2014-007, ∆acrB JW0451-2, 30mg/kg per oral)?
Answer: 1.943 Log10CFU

Question: And the “Log10CFU Mean Diff. vs. Untreated Controls” value (E. coli ∆acrB JW0451-2; Study TI-2014-007, ∆acrB JW0451-2, 100mg/kg per oral, 6 hours post treatment)?
Answer: 2.436 Log10CFU

Question: What about the “Log10CFU Mean Diff. vs. Untreated Controls” value (E. coli ∆acrB JW0451-2; Study TI-2014-008, ∆acrB JW0451-2, 30mg/kg per oral) of the same compound?
Answer: 1.497 Log10CFU

Question: And the “Log10CFU Mean Diff. vs. Untreated Controls” value (E. coli ∆acrB JW0451-2; Study TI-2014-008, ∆acrB JW0451-2, 100mg/kg per oral)?
Answer: 2.253 Log10CFU

Question: Which results are given for `Cc1sc(NC(=O)c2ccc([N+](=O)[O-])s2)nc1-c1ccccc1` [compound 7, N-(5-Methyl-4-phenylthiazol-2-yl)-5-nitrothiophene-2-carboxamide]?
Answer: MIC [3]: > 40 µg/mL; MIC [4]: > 40 µg/mL; MIC [5]: > 40 µg/mL; MIC [6]: > 40 µg/mL; MIC [7]: > 40 µg/mL; MIC [8]: > 40 µg/mL; MIC [9]: > 40 µg/mL
